Results published in PubChem BioAssay AID250 (DTP/NCI, 2004).
Several values for one entry are separate records, joined by “and”; a condition that tells them apart may be missing. Identical values can stand only once. Toxic doses and inconclusive results are not listed.

Tested on: BDF1 mice, L1210 leukemia sc, survival T/C
Assay: NCI In Vivo Anticancer Drug Screen. Data for tumor model L1210 Leukemia (subcutaneous) in B6D2F1 (BDF1) mice
Settings: endpoint: median survival time, higher = longer survival
In short: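 Transplantable tumor-bearing mice; survival or tumor size recorded; result = T/C, treated vs vehicle control.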

Which T/C (dose: 9.38 mg/kg/injection, schedule: Q03HX024 (sc), vehicle: water) does the source give for `N=c1ccn2c(n1)OC1C(O)C(CO)OC12` (stereo not given) here?
The T/C was 190 % of control.

What about the T/C (dose: 18.75 mg/kg/injection, schedule: Q03HX024 (sc), vehicle: water) of the same compound?
Its T/C is 200 % of control.

What about the T/C (dose: 25.0 mg/kg/injection, schedule: Q01DX009 (sc), vehicle: water) of the same compound?
The T/C was 203 % of control and 170 % of control.

And the T/C (dose: 25.0 mg/kg/injection, schedule: Q## X009 (sc), vehicle: water)?
Its T/C is 203 % of control and 172 % of control.

And the T/C (dose: 37.5 mg/kg/injection, schedule: Q01DX008 (sc), vehicle: water)?
Its T/C is 227 % of control and 228 % of control.

What about the T/C (dose: 37.5 mg/kg/injection, schedule: Q01DX009 (sc), vehicle: water) of the same compound?
The T/C was 180 % of control.

What about the T/C (dose: 37.5 mg/kg/injection, schedule: Q03HX024 (sc), vehicle: water) of the same compound?
The T/C was 205 % of control.

What about the T/C (dose: 50.0 mg/kg/injection, schedule: Q01DX009 (sc), vehicle: water) of the same compound?
The T/C was 184 % of control [middle of 4 runs].

And the T/C (dose: 50.0 mg/kg/injection, schedule: Q## X009 (sc), vehicle: water)?
The T/C was 214 % of control and 188 % of control.

And the T/C (dose: 65.0 mg/kg/injection, schedule: Q01DX009 (sc), vehicle: water)?
The T/C was 191 % of control.

What about the T/C (dose: 75.0 mg/kg/injection, schedule: Q01DX008 (sc), vehicle: water) of the same compound?
Its T/C is 228 % of control and 233 % of control.

And the T/C (dose: 75.0 mg/kg/injection, schedule: Q01DX009 (oral), vehicle: water)?
The T/C was 180 % of control.

And the T/C (dose: 75.0 mg/kg/injection, schedule: Q01DX009 (sc), vehicle: water)?
The T/C was 203 % of control and 190 % of control.

And the T/C (dose: 75.0 mg/kg/injection, schedule: Q03HX024 (sc), vehicle: water)?
Its T/C is 220 % of control.

What about the T/C (dose: 75.0 mg/kg/injection, schedule: Q## X009 (sc), vehicle: water) of the same compound?
The T/C was 203 % of control.

What about the T/C (dose: 100.0 mg/kg/injection, schedule: Q01DX009 (ip), vehicle: saline) of the same compound?
Its T/C is 168 % of control and 172 % of control.

And the T/C (dose: 100.0 mg/kg/injection, schedule: Q01DX009 (ip), vehicle: water)?
Its T/C is 205 % of control.

And the T/C (dose: 100.0 mg/kg/injection, schedule: Q01DX009 (sc), vehicle: water)?
Its T/C is 206 % of control [middle of 4 runs].

And the T/C (dose: 100.0 mg/kg/injection, schedule: Q## X009 (sc), vehicle: water)?
The T/C was 222 % of control and 211 % of control.

And the T/C (dose: 108.0 mg/kg/injection, schedule: Q01DX009 (sc), vehicle: water)?
The T/C was 183 % of control.

And the T/C (dose: 108.0 mg/kg/injection, schedule: Q01DX014 (sc), vehicle: water)?
The T/C was 210 % of control.

And the T/C (dose: 108.0 mg/kg/injection, schedule: Q01DX015 (sc), vehicle: water)?
Its T/C is 194 % of control and 200 % of control.

What about the T/C (dose: 150.0 mg/kg/injection, schedule: Q01DX008 (sc), vehicle: water) of the same compound?
The T/C was 247 % of control and 250 % of control.

And the T/C (dose: 150.0 mg/kg/injection, schedule: Q01DX009 (oral), vehicle: water)?
The T/C was 175 % of control.

What about the T/C (dose: 150.0 mg/kg/injection, schedule: Q01DX009 (sc), vehicle: water) of the same compound?
The T/C was 233 % of control and 200 % of control.

What about the T/C (dose: 150.0 mg/kg/injection, schedule: Q03HX008 (sc), vehicle: water) of the same compound?
Its T/C is 150 % of control.

What about the T/C (dose: 150.0 mg/kg/injection, schedule: Q03HX024 (sc), vehicle: water) of the same compound?
The T/C was 210 % of control.

And the T/C (dose: 150.0 mg/kg/injection, schedule: Q## X009 (sc), vehicle: water)?
The T/C was 233 % of control.

What about the T/C (dose: 180.0 mg/kg/injection, schedule: Q01DX009 (sc), vehicle: water) of the same compound?
The T/C was 207 % of control.

What about the T/C (dose: 180.0 mg/kg/injection, schedule: Q01DX014 (sc), vehicle: water) of the same compound?
The T/C was 253 % of control.

What about the T/C (dose: 180.0 mg/kg/injection, schedule: Q01DX015 (sc), vehicle: water) of the same compound?
Its T/C is 222 % of control and 223 % of control.

What about the T/C (dose: 200.0 mg/kg/injection, schedule: Q01DX009 (ip), vehicle: saline) of the same compound?
The T/C was 180 % of control and 190 % of control.

What about the T/C (dose: 200.0 mg/kg/injection, schedule: Q01DX009 (ip), vehicle: water) of the same compound?
The T/C was 227 % of control.

What about the T/C (dose: 200.0 mg/kg/injection, schedule: Q01DX009 (sc), vehicle: water) of the same compound?
The T/C was 236 % of control [middle of 4 runs].

And the T/C (dose: 200.0 mg/kg/injection, schedule: Q## X009 (sc), vehicle: water)?
The T/C was 247 % of control and 238 % of control.

And the T/C (dose: 300.0 mg/kg/injection, schedule: Q01DX001 (sc), vehicle: water)?
The T/C was 120 % of control.

And the T/C (dose: 300.0 mg/kg/injection, schedule: Q01DX008 (sc), vehicle: water)?
Its T/C is 235 % of control and 238 % of control.

And the T/C (dose: 300.0 mg/kg/injection, schedule: Q01DX009 (ip), vehicle: saline)?
The T/C was 202 % of control and 209 % of control.

What about the T/C (dose: 300.0 mg/kg/injection, schedule: Q01DX009 (oral), vehicle: water) of the same compound?
The T/C was 195 % of control.

What about the T/C (dose: 300.0 mg/kg/injection, schedule: Q01DX009 (sc), vehicle: water) of the same compound?
The T/C was 180 % of control and 183 % of control (2×).

And the T/C (dose: 300.0 mg/kg/injection, schedule: Q01DX014 (sc), vehicle: water)?
Its T/C is 239 % of control.

And the T/C (dose: 300.0 mg/kg/injection, schedule: Q01DX015 (sc), vehicle: water)?
Its T/C is 227 % of control and 231 % of control.

And the T/C (dose: 300.0 mg/kg/injection, schedule: Q03HX008 (sc), vehicle: water)?
Its T/C is 155 % of control.

And the T/C (dose: 300.0 mg/kg/injection, schedule: Q04DX003 (sc), vehicle: water)?
The T/C was 150 % of control.

And the T/C (dose: 300.0 mg/kg/injection, schedule: Q## X009 (sc), vehicle: water)?
The T/C was 218 % of control.

And the T/C (dose: 400.0 mg/kg/injection, schedule: Q01DX009 (ip), vehicle: water)?
Its T/C is 177 % of control.

And the T/C (dose: 400.0 mg/kg/injection, schedule: Q01DX009 (sc), vehicle: water)?
The T/C was 200 % of control and 209 % of control and 304 % of control.

And the T/C (dose: 500.0 mg/kg/injection, schedule: Q01DX014 (sc), vehicle: water)?
The T/C was 163 % of control.

What about the T/C (dose: 500.0 mg/kg/injection, schedule: Q01DX015 (sc), vehicle: water) of the same compound?
Its T/C is 211 % of control and 233 % of control.

And the T/C (dose: 600.0 mg/kg/injection, schedule: Q01DX008 (sc), vehicle: water)?
Its T/C is 172 % of control and 180 % of control.

What about the T/C (dose: 600.0 mg/kg/injection, schedule: Q01DX009 (oral), vehicle: water) of the same compound?
The T/C was 155 % of control.

And the T/C (dose: 600.0 mg/kg/injection, schedule: Q04DX003 (sc), vehicle: water)?
The T/C was 170 % of control.

And the T/C (dose: 800.0 mg/kg/injection, schedule: Q01DX009 (ip), vehicle: water)?
The T/C was 122 % of control.

And the T/C (dose: 800.0 mg/kg/injection, schedule: Q01DX009 (sc), vehicle: water)?
Its T/C is 88 % of control.

What about the T/C (dose: 800.0 mg/kg/injection, schedule: Q## X009 (sc), vehicle: water) of the same compound?
Its T/C is 88 % of control.

What about the T/C (dose: 1200.0 mg/kg/injection, schedule: Q01DX009 (oral), vehicle: water) of the same compound?
Its T/C is 100 % of control.

And the T/C (dose: 1200.0 mg/kg/injection, schedule: Q04DX003 (sc), vehicle: water)?
The T/C was 195 % of control.

What about the T/C (dose: 1600.0 mg/kg/injection, schedule: Q01DX001 (sc), vehicle: water) of the same compound?
The T/C was 150 % of control and 157 % of control.

And the T/C (dose: 2400.0 mg/kg/injection, schedule: Q01DX001 (sc), vehicle: water)?
Its T/C is 150 % of control.

And the T/C (dose: 2400.0 mg/kg/injection, schedule: Q03HX008 (sc), vehicle: water)?
Its T/C is 90 % of control.
